In the supplement of paper PMC10307832:

Key:
Test in all cases: relative viability (nuclei count vs DMSO), 5 days (fraction); higher = more cells survive
Carboplatin + OSI-027 = compound: C1CC(C1)(C(=O)O)C(=O)O.[NH2-].[NH2-].[Pt+2] [Carboplatin] + COc1cccc2cc(-c3nc([C@H]4CC[C@H](C(=O)O)CC4)n4ncnc(N)c34)[nH]c12 [OSI-027] (partner 0.5 µM)
How it was run: (§1)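 Relative viability divides the nuclei count in treated wells by that in vehicle wells. Lung cancer cell lines were seeded in 1536-well plates, dosed by pin tool the next day, and fixed and stained after 5 days in one step with final 0.05% Triton X-100, 1% formaldehyde and 1 ug/ml Hoechst. Dosing was a single drug or a fixed anchor-drug dose plus five library-drug doses (not always all listed) in √10 steps, and values are medians of duplicate plates imaged at 4×.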

Carboplatin + Decitabine = compound: C1CC(C1)(C(=O)O)C(=O)O.[NH2-].[NH2-].[Pt+2] [Carboplatin] + Nc1ncn([C@H]2C[C@H](O)[C@@H](CO)O2)c(=O)n1 [Decitabine] (partner 2 µM)
How it was run: as §1

GSK126 + Navitoclax = compound: CC[C@H](C)N1C=C(C2=C(C=C(C=C21)C3=CN=C(C=C3)N4CCNCC4)C(=O)NCC5=C(C=C(NC5=O)C)C)C [GSK126] + CC1(C)CCC(c2ccc(Cl)cc2)=C(CN2CCN(c3ccc(C(=O)NS(=O)(=O)c4ccc(N[C@H](CCN5CCOCC5)CSc5ccccc5)c(S(=O)(=O)C(F)(F)F)c4)cc3)CC2)C1 [Navitoclax] (partner 0.5 µM)
How it was run: as §1

GSK126 + AZD7762 = compound: CC[C@H](C)N1C=C(C2=C(C=C(C=C21)C3=CN=C(C=C3)N4CCNCC4)C(=O)NCC5=C(C=C(NC5=O)C)C)C [GSK126] + NC(=O)Nc1cc(-c2cccc(F)c2)sc1C(=O)N[C@H]1CCCNC1 [AZD7762] (partner 0.2 µM)
How it was run: as §1

Cell Line	relative viability (Carboplatin + OSI-027; first compound 0.08 µM)	relative viability (Carboplatin + OSI-027; first compound 0.253 µM)	relative viability (Carboplatin + OSI-027; first compound 0.8 µM)	relative viability (Carboplatin + OSI-027; first compound 2.53 µM)	relative viability (Carboplatin + OSI-027; first compound 8 µM)	relative viability (Carboplatin + Decitabine; first compound 0.08 µM)	relative viability (Carboplatin + Decitabine; first compound 0.253 µM)	relative viability (Carboplatin + Decitabine; first compound 0.8 µM)	relative viability (Carboplatin + Decitabine; first compound 2.53 µM)	relative viability (Carboplatin + Decitabine; first compound 8 µM)	relative viability (GSK126 + Navitoclax; first compound 0.08 µM)	relative viability (GSK126 + Navitoclax; first compound 0.253 µM)	relative viability (GSK126 + Navitoclax; first compound 0.8 µM)	relative viability (GSK126 + Navitoclax; first compound 2.53 µM)	relative viability (GSK126 + Navitoclax; first compound 8 µM)	relative viability (GSK126 + AZD7762; first compound 0.08 µM)	relative viability (GSK126 + AZD7762; first compound 0.253 µM)	relative viability (GSK126 + AZD7762; first compound 0.8 µM)	relative viability (GSK126 + AZD7762; first compound 2.53 µM)	relative viability (GSK126 + AZD7762; first compound 8 µM)
NCI-H1793	0.32	0.337	0.284	0.296	0.312	0.464	0.538	0.503	0.452	0.357	0.503	0.491	0.379	0.369	0.416	0.646	0.394	0.299	0.592	0.292
NCI-H522	0.741	0.711	0.567	0.685	0.7	0.646	0.685	0.614	0.655	0.644	–	–	–	–	–	0.849	0.888	0.904	0.93	0.964
LOU-NH91	0.811	0.72	0.75	0.761	0.73	0.873	0.832	0.806	0.792	0.77	0.732	0.656	0.68	0.751	0.706	0.789	0.737	0.714	0.822	0.727
NCI-H1355	0.476	0.375	0.413	0.377	0.415	0.337	0.379	0.329	0.333	0.28	0.985	1.07	0.911	1.01	1.02	0.814	0.658	0.688	0.746	0.479
NCI-H2023	0.481	0.424	0.318	0.198	0.123	0.238	0.224	0.185	0.141	0.129	1.04	0.984	1.04	1.09	0.995	–	–	–	–	–
NCI-H1648	0.238	0.258	0.247	–	0.265	0.542	0.475	0.542	0.435	0.46	–	–	–	–	–	0.568	0.756	0.73	0.718	0.522
NCI-H358	1	0.878	0.8	0.843	0.611	0.213	0.222	0.201	0.201	0.186	–	–	–	–	–	0.552	0.471	0.482	0.768	0.476
Calu-6	–	–	–	–	–	–	–	–	–	–	0.936	0.858	0.853	0.842	0.795	–	–	–	–	–
EBC-1	–	–	–	–	–	–	–	–	–	–	0.449	0.407	0.365	0.477	0.362	–	–	–	–	–
IA-LM	–	–	–	–	–	–	–	–	–	–	0.702	0.691	0.758	0.761	0.947	–	–	–	–	–
NCI-H1563	0.821	0.751	0.773	0.754	0.775	–	–	–	–	–	–	–	–	–	–	–	–	–	–	–
NCI-H2228	0.685	0.63	0.597	0.64	0.349	–	–	–	–	–	0.55	1.01	1.1	0.863	0.837	–	–	–	–	–
NCI-H661	0.758	0.824	0.66	0.578	0.478	0.526	0.577	0.534	0.521	0.526	–	–	–	–	–	–	–	–	–	–
NCI-H1299	–	–	–	–	–	–	–	–	–	–	1.05	1.07	1.01	1.03	1.02	–	–	–	–	–
NCI-H2009	0.699	0.597	0.61	0.56	0.402	0.352	0.379	0.345	0.364	0.357	1.23	1.14	1.19	1.1	1.16	–	–	–	–	–
NCI-H2342	0.785	0.731	0.717	0.534	0.608	0.675	0.729	0.661	0.721	0.594	–	–	–	–	–	0.543	0.425	0.477	0.619	0.58
COR-L 105	0.835	0.776	0.696	0.62	0.537	0.648	0.611	0.687	0.515	0.398	0.813	0.745	0.754	0.678	0.719	–	–	–	–	–
SW 1573	0.653	0.694	0.67	0.617	0.437	0.493	0.524	0.587	0.4	0.26	0.894	0.955	1.2	1.06	1.07	–	–	–	–	–
CAL-12T	0.696	0.603	0.735	0.779	0.526	–	–	–	–	–	1.27	1.27	0.967	1.1	1.33	0.751	0.562	0.622	0.554	0.589
SK-MES-1	0.684	0.609	0.699	0.628	0.553	0.419	0.415	0.345	0.341	0.341	1.4	1.27	1.1	1.33	1.16	–	–	–	–	–
ABC-1	0.551	0.509	0.547	0.335	0.299	1.02	1.12	1.01	0.931	0.52	–	–	–	–	–	0.587	1.04	0.95	0.886	0.916
SW 900	0.726	0.533	0.49	0.465	0.412	0.431	0.361	0.42	0.395	0.377	–	–	–	–	–	0.765	0.559	0.582	0.585	0.58
NCI-H650	0.526	0.514	0.601	0.539	0.356	0.308	0.329	0.344	0.328	0.246	–	–	–	–	–	0.946	1.11	0.964	1.01	1.16
NCI-H1623	0.481	0.404	0.455	0.41	0.385	–	–	–	–	–	–	–	–	–	–	–	–	–	–	–
A549	–	–	–	–	–	0.259	0.338	0.279	0.231	0.18	1.37	1.28	1.23	1.24	1.13	–	–	–	–	–
